Results on nine compounds are retold here after ChEMBL document CHEMBL2331252, “Facile one-pot synthesis of novel dispirooxindole-pyrrolidine derivatives and their antimicrobial and anticancer activity against A549 human lung adenocarcinoma cancer cell line” (Bioorg Med Chem Lett, 2013).

The test system of test [1] is A549. In words: Cytotoxicity against human A549 cells assessed as cell death at 50 ug/ml by MTT assay. In kind it is functional.
Test [2] relates to A549. In words: Cytotoxicity against human A549 cells assessed as cell death at 200 ug/ml by MTT assay. In kind it is functional.
For test [3], the system named is A549. Kind of test: Cytotoxicity against human A549 cells assessed as cell death at 100 ug/ml by MTT assay. It counts as functional.
Test [4] relates to Candida albicans. Kind of test: Antifungal activity against Candida albicans MTCC 227 after 48 to 72 hrs. In kind it is functional.
Test [5] has as its system Staphylococcus aureus. Kind of test: Antibacterial activity against methicillin-resistant Staphylococcus aureus after 24 hrs. In kind it is functional.
For test [6], the system named is Staphylococcus aureus. Kind of test: Antibacterial activity against Staphylococcus aureus MTCC 96 after 24 hrs. It counts as functional. To be noted: MTCC 96, 24 h.
Test [7] deals with Klebsiella aerogenes. In words: Antibacterial activity against Enterobacter aerogenes MTCC 111 after 24 hrs. It counts as functional.
For test [8], the system named is Micrococcus luteus. Kind of test: Antibacterial activity against Micrococcus luteus MTCC 106 after 24 hrs. In kind it is functional. To be noted: MTCC 106, 24 h.
Test [9] deals with Shigella flexneri. Kind of test: Antibacterial activity against Shigella flexneri MTCC 1457 after 24 hrs. In kind it is functional. To be noted: MTCC 1457, 24 h.
Test [10] deals with Proteus vulgaris. In words: Antibacterial activity against Proteus vulgaris MTCC 1771 after 24 hrs. In kind it is functional.
Test [11] relates to Klebsiella pneumoniae. In words: Antibacterial activity against Klebsiella pneumoniae MTCC 109 after 24 hrs. Particulars: MTCC 109, 24 h. It counts as functional.
Test [12] has as its system Salmonella typhimurium. In words: Antibacterial activity against Salmonella typhimurium MTCC 1251 after 24 hrs. In kind it is functional, Salmonella enterica subsp. enterica serovar Typhimurium.
A short description of test [13]: Antifungal activity against Malassezia pachydermatis at 1 mg/disc after 48 hrs by disc diffusion method. It counts as functional.
For test [14], the system named is Candida albicans. Kind of test: Antifungal activity against Candida albicans MTCC 227 at 1 mg/disc after 48 hrs by disc diffusion method. It counts as functional.
In test [15] the test system is Staphylococcus aureus. Kind of test: Antibacterial activity against methicillin-resistant Staphylococcus aureus at 1 mg/disc after 24 hrs by disc diffusion method. It counts as functional.
The subject of test [16] is Staphylococcus aureus. Kind of test: Antibacterial activity against Staphylococcus aureus MTCC 96 at 1 mg/disc after 24 hrs by disc diffusion method. It counts as functional.
Test [17] deals with Klebsiella aerogenes. In words: Antibacterial activity against Enterobacter aerogenes MTCC 111 at 1 mg/disc after 24 hrs by disc diffusion method. It counts as functional.
In test [18] the test system is Micrococcus luteus. Kind of test: Antibacterial activity against Micrococcus luteus MTCC 106 at 1 mg/disc after 24 hrs by disc diffusion method. In kind it is functional.
Test [19] has as its system Shigella flexneri. In words: Antibacterial activity against Shigella flexneri MTCC 1457 at 1 mg/disc after 24 hrs by disc diffusion method. In kind it is functional.
Test [20] deals with Proteus vulgaris. Kind of test: Antibacterial activity against Proteus vulgaris MTCC 1771 at 1 mg/disc after 24 hrs by disc diffusion method. In kind it is functional.
For test [21], the system named is Klebsiella pneumoniae. In words: Antibacterial activity against Klebsiella pneumoniae MTCC 109 at 1 mg/disc after 24 hrs by disc diffusion method. It counts as functional.
The subject of test [22] is Salmonella typhimurium. Kind of test: Antibacterial activity against Salmonella typhimurium MTCC 1251 at 1 mg/disc after 24 hrs by disc diffusion method. It counts as functional, Salmonella enterica subsp. enterica serovar Typhimurium. Particulars: for inhibition: Salmonella enterica subsp. enterica serovar Typhimurium.
The mark [23] stands for this setting: Salmonella enterica, MTCC 1251, 24 h.

In brackets after ≈: the same amount, converted by molar mass. Activity calls are given as the source filed them. The rule behind the calls is not given here.

Take `CN1C[C@](C#N)(C(=O)c2c[nH]c3ccccc23)[C@]2(C(=O)Nc3ccccc32)[C@@]12C(=O)Nc1ccc(Br)cc12`: the figures for the Activity in the test on A549 [1], in the test on A549 [2] and with A549 [3] were 3.43%, 15.98% and 9.34%, respectively. In addition, the MIC in the test on Candida albicans [4] turned out to be 500 µg/mL (≈ 883 µM); with Staphylococcus aureus [5], 500 µg/mL (≈ 883 µM); against Staphylococcus aureus [6] it was 500 µg/mL (≈ 883 µM); in the test on Micrococcus luteus [8], 1000 µg/mL (≈ 1770 µM); against Shigella flexneri [9], 500 µg/mL (≈ 883 µM); against Proteus vulgaris [10] (MTCC 1771, 24 h) it was 250 µg/mL (≈ 441 µM). Further, the MIC against Klebsiella pneumoniae [11] was found to be 500 µg/mL (≈ 883 µM); against Salmonella typhimurium [12] (setting [23]), 125 µg/mL (≈ 221 µM). The MIC entry in the test with Klebsiella aerogenes [7] is “inactive”. Besides, the inhibition result in test [13] was “inactive”. Moreover, the “inhibition zone (IZ)” value is recorded as 11 mm with Candida albicans [14]; 9 mm in the test with Staphylococcus aureus [15]; 11 mm in the test with Staphylococcus aureus [16]; 10 mm in the test with Klebsiella aerogenes [17]; 9 mm in the test on Micrococcus luteus [18]; 10 mm with Shigella flexneri [19]. Besides, the “inhibition zone (IZ)” value in the test on Proteus vulgaris [20] amounted to 12 mm; in the test with Klebsiella pneumoniae [21], 9 mm; in the test on Salmonella typhimurium [22], 15 mm.

In the case of `CN1C(=O)[C@@]2(c3cc(Cl)ccc31)N(C)C[C@](C#N)(C(=O)c1c[nH]c3ccccc13)[C@]21C(=O)Nc2ccccc21`, the Activity in the test on A549 [1] worked out at 3.76%; with A549 [2] it was 22.21%; with A549 [3] it was 12.98%. Besides, in the test on Candida albicans [4], the MIC entry was “inactive”. The MIC against Staphylococcus aureus [5] is 500 µg/mL (≈ 933 µM); against Staphylococcus aureus [6] it was 500 µg/mL (≈ 933 µM); in the test on Klebsiella aerogenes [7] (MTCC 111, 24 h) it was 125 µg/mL (≈ 233 µM); in the test with Micrococcus luteus [8], 125 µg/mL (≈ 233 µM); in the test with Shigella flexneri [9], 500 µg/mL (≈ 933 µM); against Proteus vulgaris [10] (MTCC 1771, 24 h), 125 µg/mL (≈ 233 µM). The MIC is 125 µg/mL (≈ 233 µM) against Klebsiella pneumoniae [11] and 500 µg/mL (≈ 933 µM) in the test with Salmonella typhimurium [12] (setting [23]). The inhibition result (in test [13]; in the test with Candida albicans [14]) was “inactive” each time. The “inhibition zone (IZ)” value came out at 10 mm in the test with Staphylococcus aureus [15]; 9 mm with Staphylococcus aureus [16]; 11 mm in the test with Klebsiella aerogenes [17]; 12 mm with Micrococcus luteus [18]; 9 mm in the test with Shigella flexneri [19]; 11 mm with Proteus vulgaris [20]. Also, the results for the “inhibition zone (IZ)” value in the test with Klebsiella pneumoniae [21] and with Salmonella typhimurium [22] were 10 mm and 9 mm, respectively.

As to `CN1C[C@](C#N)(C(=O)c2c[nH]c3ccccc23)[C@]2(C(=O)Nc3ccccc32)[C@@]12C(=O)Nc1ccccc12`, the Activity amounted to 17.46% in the test on A549 [1], 33.5% in the test on A549 [2] and 20.91% in the test on A549 [3]. Further, the MIC amounted to 500 µg/mL (≈ 1030 µM) in the test on Candida albicans [4]; 500 µg/mL (≈ 1030 µM) with Staphylococcus aureus [5]; 500 µg/mL (≈ 1030 µM) in the test with Staphylococcus aureus [6]; 500 µg/mL (≈ 1030 µM) against Klebsiella aerogenes [7] (MTCC 111, 24 h); 500 µg/mL (≈ 1030 µM) with Micrococcus luteus [8]; 500 µg/mL (≈ 1030 µM) in the test on Shigella flexneri [9]. Besides, the MIC in the test on Proteus vulgaris [10] (MTCC 1771, 24 h) turned out to be 500 µg/mL (≈ 1030 µM); against Klebsiella pneumoniae [11] it was 125 µg/mL (≈ 256 µM). The MIC result in the test with Salmonella typhimurium [12] (Salmonella enterica subsp. enterica serovar Typhimurium) is “inactive”. In addition, the inhibition entry (in test [13]; in the test with Salmonella typhimurium [22]) was “inactive” each time. Also, the “inhibition zone (IZ)” value in the test on Candida albicans [14] turned out to be 9 mm; in the test on Staphylococcus aureus [15] it was 10 mm; with Staphylococcus aureus [16], 8 mm; with Klebsiella aerogenes [17] it was 9 mm; with Micrococcus luteus [18], 9 mm; in the test on Shigella flexneri [19], 8 mm. For the same compound, the results for the “inhibition zone (IZ)” value in the test with Proteus vulgaris [20] and in the test with Klebsiella pneumoniae [21] were 8 mm and 12 mm, respectively.

With `CN1C[C@](C#N)(C(=O)c2c[nH]c3ccccc23)[C@]2(C(=O)Nc3ccccc32)[C@@]12C(=O)Nc1ccc([N+](=O)[O-])cc12`, the Activity is on record as 18.37% in the test on A549 [1], 55.26% in the test on A549 [2] and 36.65% in the test with A549 [3]. In addition, the inhibition entry (in test [13]; with Staphylococcus aureus [15]; in the test with Staphylococcus aureus [16]; in the test on Micrococcus luteus [18]; in the test on Shigella flexneri [19]; in the test with Proteus vulgaris [20]) was “inactive” in each case. Moreover, in the test with Klebsiella pneumoniae [21], the inhibition result is “inactive”. Moreover, the figures for the “inhibition zone (IZ)” value in the test with Candida albicans [14], in the test on Klebsiella aerogenes [17] and with Salmonella typhimurium [22] were 9 mm, 8 mm and 8 mm, respectively.

For `CN[C@@H]1[C@H](O[C@H]2[C@H](O[C@H]3[C@H](O)[C@@H](O)[C@H](N=C(N)N)[C@@H](O)[C@@H]3N=C(N)N)O[C@@H](C)[C@]2(O)C=O)O[C@@H](CO)[C@H](O)[C@H]1O` [STREPTOMYCIN], the MIC in the test on Staphylococcus aureus [5] came to 6.25 µg/mL (≈ 10.7 µM); against Staphylococcus aureus [6], 6.25 µg/mL (≈ 10.7 µM); with Klebsiella aerogenes [7] (MTCC 111, 24 h), 25 µg/mL (≈ 43 µM); in the test on Micrococcus luteus [8] it was 6.25 µg/mL (≈ 10.7 µM); in the test on Shigella flexneri [9], 6.25 µg/mL (≈ 10.7 µM); with Klebsiella pneumoniae [11], 6.25 µg/mL (≈ 10.7 µM). In the test on Salmonella typhimurium [12] (setting [23]), this compound yielded an MIC of 30 µg/mL (≈ 51.6 µM). Besides, the MIC entry in the test on Proteus vulgaris [10] was “inactive”. For the same compound, the “inhibition zone (IZ)” value was 30 mm in the test on Staphylococcus aureus [15]; 14 mm in the test on Staphylococcus aureus [16]; 22 mm in the test on Klebsiella aerogenes [17]; 26 mm in the test with Micrococcus luteus [18]; 30 mm in the test on Shigella flexneri [19]; 30 mm in the test with Proteus vulgaris [20]. Moreover, the “inhibition zone (IZ)” value in the test with Klebsiella pneumoniae [21] is listed as 20 mm; in the test with Salmonella typhimurium [22] it was 18 mm.

In the case of `CCOC(=O)CN1C(=O)[C@@]2(c3ccccc31)N(C)C[C@](C#N)(C(=O)c1c[nH]c3ccccc13)[C@]21C(=O)Nc2ccccc21`, the values for the Activity with A549 [1], in the test with A549 [2] and in the test on A549 [3] were 11.04%, 27.78% and 21.25%, respectively. In addition, the inhibition zone (IZ) in [13] stood at 11 mm; in the test on Candida albicans [14], 9 mm; in the test with Staphylococcus aureus [16] it was 9 mm; with Proteus vulgaris [20] it was 8 mm. The inhibition result with Staphylococcus aureus [15], in the test on Klebsiella aerogenes [17], in the test on Micrococcus luteus [18], in the test with Shigella flexneri [19], in the test with Klebsiella pneumoniae [21] and in the test with Salmonella typhimurium [22] was “inactive” in each case.

For `CN1C(=O)[C@@]2(c3cc([N+](=O)[O-])ccc31)N(C)C[C@](C#N)(C(=O)c1c[nH]c3ccccc13)[C@]21C(=O)Nc2ccccc21`, the Activity with A549 [1] came to 9.27%; with A549 [2] it was 60.22%; in the test on A549 [3], 24.36%. The inhibition zone (IZ) in test [13] turned out to be 12 mm; in the test on Candida albicans [14], 9 mm; with Micrococcus luteus [18] it was 7 mm; in the test on Salmonella typhimurium [22], 8 mm. Besides, the inhibition entry with Staphylococcus aureus [15], in the test with Staphylococcus aureus [16], in the test with Klebsiella aerogenes [17], in the test with Shigella flexneri [19], with Proteus vulgaris [20] and in the test on Klebsiella pneumoniae [21] was “inactive” each time.

With `CN1C[C@](C#N)(C(=O)c2c[nH]c3ccccc23)[C@]2(C(=O)Nc3ccccc32)[C@@]12C(=O)N(c1ccccc1)c1ccccc12`, the Activity came out at 39.41% with A549 [1], 47.89% in the test with A549 [2] and 41.58% in the test on A549 [3]. Also, the inhibition zone (IZ) came to 14 mm in test [13], 13 mm in the test with Candida albicans [14], 7 mm in the test on Staphylococcus aureus [16] and 9 mm with Klebsiella pneumoniae [21]. The inhibition entry in the test on Staphylococcus aureus [15], in the test with Klebsiella aerogenes [17], in the test on Micrococcus luteus [18], with Shigella flexneri [19], in the test on Proteus vulgaris [20] and in the test on Salmonella typhimurium [22] was “inactive” throughout.

In the test on Candida albicans [4], `CC(=O)N1CCN(c2ccc(OCC3COC(Cn4ccnc4)(c4ccc(Cl)cc4Cl)O3)cc2)CC1` (configuration not stated) [KETOCONAZOLE] came in with an MIC of 25 µg/mL (≈ 47 µM). In addition, the inhibition zone (IZ) in test [13] turned out to be 26 mm; with Candida albicans [14], 28 mm.
